Test results reported in US8895032B2, “Dendritic nano-antioxidants” (Central Michigan University, priority 2009, dated 2014).
Where “and” joins values, the source holds several entries; their conditions need not be identical. Identical values can stand only once. Like-named read-outs stand apart in the source and are kept apart here.

Experiments:
DPPH radical assay = settings: for time to reach plateau / steady state with DPPH•: 50 μM syringaldehyde, 12.5 μM Trolox and ascorbic acid, methanol, room temperature, 515 nm; for IC50: read-out: DPPH IC50 at 120 min, Example 15
Human LDL = assay: Protection of LDL from AAPH oxidation (agarose gel electrophoresis); type: biochemical; settings: 37° C.
plasmid DNA pBR 322 = assay: Protection of plasmid DNA from AAPH damage (agarose electrophoresis); type: biochemical; settings: 10 mM AAPH, 37° C., 4 h

Compound	# of DDPH• reduced per antioxidant molecule (1/stoichiometry) (DPPH radical assay)	Antioxidant Capacity Relative to Trolox, DPPH (DPPH radical assay)	time to reach plateau / steady state with DPPH• (DPPH radical assay; 5 μM compound 1)	IC50 (DPPH radical assay)	protection of LDL at all antioxidant concentrations (Human LDL; 1-30 μM, 20 mM AAPH, 21 h)	DNA protection at all concentrations used (plasmid DNA pBR 322; 0.35-45 μM)	DPPH• remaining at plateau (DPPH radical assay; 5 μM compound 1)	DPPH• remaining in two minutes (DPPH radical assay; 5 μM compound 1)	decrease in DDPH• (DPPH radical assay; 5 μM solution)	Antioxidant Capacity Relative to Trolox, DPPH (DPPH radical assay; listed as compound 1)	DPPH antioxidant capacity, times better than ascorbic acid (DPPH radical assay; listed as compound 1)	protection of LDL from AAPH free radicals (anodic migration) (Human LDL; 10 mM AAPH, 18 h)	only concentration effective in protecting LDL (Human LDL; 20 mM AAPH, 21 h)	DNA protection (plasmid DNA pBR 322; 5 μM antioxidant)	DNA protection (S band intensity) (plasmid DNA pBR 322; 11-45 μM antioxidant)	DNA protection (plasmid DNA pBR 322; below 5 μM antioxidant)
Cc1c(C)c2c(c(C)c1O)CCC(C)(C(=O)O)O2 (centres unmarked) [Trolox, 6-hydroxy-2,5,7,8-tetramethylchroman-2-carboxylic acid]	1.8	1	≤ 2 min	30 µM	ineffective	ineffective	–	–	–	–	–	–	–	–	–	–
COc1cc(CN(Cc2ccc(CN(Cc3cc(OC)c(O)c(OC)c3)Cc3cc(OC)c(O)c(OC)c3)cc2)Cc2cc(OC)c(O)c(OC)c2)cc(OC)c1O [Compound 1]	8.8	4.9	approximately 45 min	4 µM	–	–	46%	60%	60%	~5 and 4.9	~5 times and 4.9 times	most efficient in protecting LDL	30 µM	Some protection	well protected	No protection
